Laboratory results published in PubChem BioAssay (NCI).
“And” between values parts separate entries of the source, which are not always exact repeats. Equal values may be shown once.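 Values below derive from 48-hour exposures of cells grown in 96-well plates, with endpoints linearly interpolated between the two concentrations bracketing the appropriate inhibition level. Abbreviation: GI50, concentration required for 50% inhibition of growth. At the TGI there is no net growth.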

Tests used:
Assay in all cases: NCI-60 cell line screen, 48 h
A498 renal = tested on: A498 renal
COLO 205 colon = tested on: COLO 205 colon
ACHN renal = tested on: ACHN renal
SNB-19 CNS = tested on: SNB-19 CNS
PC-3 prostate = tested on: PC-3 prostate
SN12C renal = tested on: SN12C renal
HCC-2998 colon = tested on: HCC-2998 colon
NCI/ADR-RES ovarian = tested on: NCI/ADR-RES ovarian
RPMI-8226 leukemia = tested on: RPMI-8226 leukemia
DU-145 prostate = tested on: DU-145 prostate
M14 melanoma = tested on: M14 melanoma
SNB-75 CNS = tested on: SNB-75 CNS
OVCAR-3 ovarian = tested on: OVCAR-3 ovarian
KM12 colon = tested on: KM12 colon
UACC-257 melanoma = tested on: UACC-257 melanoma
SK-OV-3 ovarian = tested on: SK-OV-3 ovarian
U251 CNS = tested on: U251 CNS
A549 NSCLC = tested on: A549 NSCLC
NCI-H23 lung = tested on: NCI-H23 lung
TK-10 renal = tested on: TK-10 renal
SK-MEL-2 melanoma = tested on: SK-MEL-2 melanoma
786-0 renal = tested on: 786-0 renal
SK-MEL-5 melanoma = tested on: SK-MEL-5 melanoma
HOP-62 NSCLC = tested on: HOP-62 NSCLC
HS 578T breast = tested on: HS 578T breast
MOLT-4 leukemia = tested on: MOLT-4 leukemia
MCF7 breast = tested on: MCF7 breast
CAKI-1 renal = tested on: CAKI-1 renal
NCI-H226 lung = tested on: NCI-H226 lung
OVCAR-4 ovarian = tested on: OVCAR-4 ovarian
UO-31 renal = tested on: UO-31 renal
HL-60(TB) leukemia = tested on: HL-60(TB) leukemia
SF-268 CNS = tested on: SF-268 CNS
SF-539 CNS = tested on: SF-539 CNS
MDA-MB-231 breast = tested on: MDA-MB-231 breast
IGROV1 ovarian = tested on: IGROV1 ovarian
MDA-MB-435 = tested on: MDA-MB-435
OVCAR-5 ovarian = tested on: OVCAR-5 ovarian
HT29 colon = tested on: HT29 colon
HCT-15 colon = tested on: HCT-15 colon
HCT-116 colon = tested on: HCT-116 colon
UACC-62 melanoma = tested on: UACC-62 melanoma
HOP-92 NSCLC = tested on: HOP-92 NSCLC
SK-MEL-28 melanoma = tested on: SK-MEL-28 melanoma
SW-620 colon = tested on: SW-620 colon
T-47D breast = tested on: T-47D breast
NCI-H460 lung = tested on: NCI-H460 lung
SR leukemia = tested on: SR leukemia
EKVX NSCLC = tested on: EKVX NSCLC
BT-549 breast = tested on: BT-549 breast
OVCAR-8 ovarian = tested on: OVCAR-8 ovarian
K-562 leukemia = tested on: K-562 leukemia
CCRF-CEM leukemia = tested on: CCRF-CEM leukemia
RXF 393 renal = tested on: RXF 393 renal
SF-295 CNS = tested on: SF-295 CNS

## CN(CCCNC(=O)Cc1ccc2ccc3cccc4ccc1c2c34)CCCNc1cc(-c2ccc3ccccc3c2)nc2ccccc12
A498 renal
  GI50: 1.66 µM
  TGI: 3.19 µM
COLO 205 colon
  GI50: 1.42 µM
  TGI: 2.83 µM
ACHN renal
  GI50: 1.42 µM
  TGI: 2.87 µM
SNB-19 CNS
  GI50: 1.74 µM
  TGI: 3.18 µM
PC-3 prostate
  GI50: 1.49 µM
  TGI: 3.22 µM
SN12C renal
  GI50: 1.68 µM
  TGI: 3.29 µM
HCC-2998 colon
  GI50: 1.48 µM
  TGI: 2.98 µM
NCI/ADR-RES ovarian
  GI50: 1.49 µM
  TGI: 2.96 µM
RPMI-8226 leukemia
  GI50: 1.22 µM
  TGI: 4.11 µM
DU-145 prostate
  GI50: 1.55 µM
  TGI: 2.89 µM
M14 melanoma
  GI50: 1.76 µM
  TGI: 3.46 µM
SNB-75 CNS
  GI50: 1.45 µM
  TGI: 2.75 µM
OVCAR-3 ovarian
  GI50: 1.76 µM
  TGI: 3.29 µM
KM12 colon
  GI50: 1.36 µM
  TGI: 2.69 µM
UACC-257 melanoma
  GI50: 1.8 µM
  TGI: 3.56 µM
SK-OV-3 ovarian
  GI50: 1.64 µM
  TGI: 3.06 µM
U251 CNS
  GI50: 1.6 µM
  TGI: 3.05 µM
A549 NSCLC
  GI50: 1.83 µM
  TGI: 3.75 µM
NCI-H23 lung
  GI50: 1.68 µM
  TGI: 3.18 µM
TK-10 renal
  GI50: 1.47 µM
  TGI: 3.02 µM
SK-MEL-2 melanoma
  GI50: 1.82 µM
  TGI: 3.55 µM
786-0 renal
  GI50: 1.53 µM
  TGI: 2.97 µM
SK-MEL-5 melanoma
  GI50: 1.64 µM
  TGI: 3.01 µM
HOP-62 NSCLC
  GI50: 1.71 µM
  TGI: 3.26 µM
HS 578T breast
  GI50: 1.66 µM
  TGI: 3.59 µM
MOLT-4 leukemia
  GI50: 1.19 µM
  TGI: 2.57 µM
MCF7 breast
  GI50: 0.587 µM
  TGI: 2.08 µM
CAKI-1 renal
  GI50: 1.8 µM
  TGI: 3.55 µM
NCI-H226 lung
  GI50: 1.83 µM
  TGI: 3.83 µM
OVCAR-4 ovarian
  GI50: 1.46 µM
  TGI: 2.78 µM
UO-31 renal
  GI50: 1.4 µM
  TGI: 3.15 µM
HL-60(TB) leukemia
  GI50: 1.1 µM
  TGI: 2.43 µM
SF-268 CNS
  GI50: 1.43 µM
  TGI: 2.91 µM
SF-539 CNS
  GI50: 1.54 µM
  TGI: 2.98 µM
MDA-MB-231 breast
  GI50: 1.54 µM
  TGI: 3.04 µM
IGROV1 ovarian
  GI50: 1.7 µM
  TGI: 3.58 µM
MDA-MB-435
  GI50: 1.44 µM
  TGI: 3.05 µM
OVCAR-5 ovarian
  GI50: 1.82 µM
  TGI: 3.28 µM
HT29 colon
  GI50: 0.511 µM
  TGI: 1.69 µM
HCT-15 colon
  GI50: 1.52 µM
  TGI: 2.94 µM
HCT-116 colon
  GI50: 0.333 µM
  TGI: 1.28 µM
UACC-62 melanoma
  GI50: 1.88 µM
  TGI: 3.46 µM
HOP-92 NSCLC
  GI50: 1.41 µM
  TGI: 3.02 µM
SK-MEL-28 melanoma
  GI50: 1.91 µM
  TGI: 3.32 µM
SW-620 colon
  GI50: 0.465 µM
  TGI: 1.7 µM
T-47D breast
  GI50: 2.04 µM
  TGI: 4.19 µM
NCI-H460 lung
  GI50: 1.65 µM
  TGI: 3.61 µM

## C=CC1CC1(CO)COc1cc(Cl)nc(N)n1 (centres undefined)
SNB-75 CNS
  GI50: 86.4 µM

## CC(C)N=c1cc2n(-c3ccc(Cl)cc3)c3ccccc3nc-2cc1Nc1ccc(Cl)cc1
COLO 205 colon
  GI50: 1.17 µM and 1.41 µM
  TGI: 4.21 µM and 5.03 µM
SR leukemia
  GI50: 2.48 µM
  TGI: > 100 µM
ACHN renal
  GI50: 1.18 µM and 2.18 µM
  TGI: > 100 µM
SNB-19 CNS
  GI50: 2.21 µM
  TGI: > 50 µM
PC-3 prostate
  GI50: 0.891 µM and 1.9 µM
  TGI: > 50 µM
SN12C renal
  GI50: 0.92 µM and 2.74 µM
  TGI: > 100 µM
EKVX NSCLC
  GI50: 1.4 µM
  TGI: > 100 µM
NCI/ADR-RES ovarian
  GI50: 2.3 µM
  TGI: > 100 µM
RPMI-8226 leukemia
  GI50: 0.821 µM
  TGI: 2.62 µM
DU-145 prostate
  GI50: 3.14 µM and 3.41 µM
  TGI: > 100 µM
M14 melanoma
  GI50: 1.01 µM and 2.29 µM
  TGI: 2.31 µM and 5.62 µM
SNB-75 CNS
  GI50: 1.23 µM
  TGI: 15.9 µM
OVCAR-3 ovarian
  GI50: 1.21 µM
  TGI: 2.76 µM
KM12 colon
  GI50: 1.18 µM
  TGI: > 50 µM
UACC-257 melanoma
  GI50: 2.58 µM
  TGI: > 50 µM
SK-OV-3 ovarian
  GI50: 2.15 µM
  TGI: > 50 µM
BT-549 breast
  GI50: 1.47 µM
  TGI: > 50 µM
U251 CNS
  GI50: 1.07 µM and 3.11 µM
  TGI: > 100 µM
A549 NSCLC
  GI50: 1.85 µM and 1.84 µM
TK-10 renal
  TGI: > 100 µM
786-0 renal
  GI50: 1.52 µM and 3.12 µM
  TGI: > 100 µM
SK-MEL-5 melanoma
  GI50: 0.634 µM and 1.28 µM
  TGI: 1.26 µM and 2.59 µM
HOP-62 NSCLC
  GI50: 4.71 µM and 4.81 µM
  TGI: > 100 µM
OVCAR-8 ovarian
  GI50: 2.79 µM
  TGI: > 100 µM
K-562 leukemia
  GI50: 2.24 µM
  TGI: > 100 µM
CCRF-CEM leukemia
  GI50: 0.75 µM and 2.49 µM
  TGI: > 100 µM
MOLT-4 leukemia
  GI50: 2.56 µM
  TGI: > 100 µM
MCF7 breast
  GI50: 1.28 µM and 2.36 µM
  TGI: > 100 µM
CAKI-1 renal
  GI50: 1.73 µM
  TGI: > 20.9 µM
NCI-H226 lung
  GI50: 1.43 µM
  TGI: > 50 µM
OVCAR-4 ovarian
  GI50: 1.29 µM
  TGI: > 100 µM
HL-60(TB) leukemia
  GI50: 1.04 µM
  TGI: 2.46 µM
RXF 393 renal
  GI50: 0.921 µM
  TGI: 4.72 µM
SF-268 CNS
  GI50: 1.73 µM
  TGI: > 50 µM
SF-539 CNS
  GI50: > 50 µM
  TGI: > 50 µM
MDA-MB-231 breast
  GI50: 0.618 µM and 1.07 µM
  TGI: > 50 µM
IGROV1 ovarian
  GI50: 0.586 µM and 0.296 µM
  TGI: > 50 µM
MDA-MB-435
  GI50: 1.04 µM and 1.8 µM
  TGI: 2.74 µM and 4.46 µM
OVCAR-5 ovarian
  GI50: 2.15 µM
  TGI: > 100 µM
HT29 colon
  GI50: 0.537 µM and 0.827 µM
  TGI: > 50 µM and 6.27 µM
HCT-15 colon
  GI50: 0.54 µM and 1.61 µM
  TGI: > 100 µM
UACC-62 melanoma
  GI50: 1.96 µM
  TGI: > 50 µM
HOP-92 NSCLC
  GI50: 0.629 µM
  TGI: 2.83 µM
SK-MEL-28 melanoma
  GI50: > 50 µM
  TGI: > 50 µM
SF-295 CNS
  GI50: 1.36 µM
  TGI: > 50 µM
SW-620 colon
  GI50: 2.96 µM
  TGI: > 100 µM
T-47D breast
  GI50: 2.37 µM
  TGI: > 50 µM
NCI-H460 lung
  GI50: 0.778 µM
  TGI: > 50 µM
